# Assays:
# SKMEL2 = conditions: SKMEL2, N-Ras cell line
# SW620 = conditions: SW620, K-Ras cell line
# A2058 = conditions: A2058, mutant B-Raf cell line
# MEXF276 xenograft = assay: Mutant B-Raf xenograft model; format: in vivo
# MALME-3M = conditions: mutant B-Raf cell line
# G361 = conditions: G361, mutant B-Raf cell line
# HT29 xenograft = assay: Mutant B-Raf xenograft model; format: in vivo
# SKMEL31 = conditions: SKMEL31, mutant B-Raf cell line
# HCT116 xenograft = assay: K-Ras driven xenograft model; format: in vivo
# Text: […]. […] […].
# COLO205 = conditions: COLO205, mutant B-Raf cell line
# [1] = system: A375M melanoma xenograft tumors; assay: mRNA microarray profiling of A375M xenograft tumors; format: in vivo, mice; conditions: 100 mg/kg orally every other day; 783 probesets; Table IX
# A375M xenograft = assay: Mutant B-Raf xenograft model; format: in vivo
# SKMEL28 = conditions: SKMEL28, mutant B-Raf cell line
# [2] = system: MEK target phosphorylation and signaling molecules downstream from Raf (BIM, Cyclin D1, p27Kip, pAKT); conditions: preclinical models
smiles,measurement,setting,value
"Cn1c(Nc2ccc(C(F)(F)F)cc2)nc2cc(Oc3ccnc(-c4ncc(C(F)(F)F)[nH]4)c3)ccc21 [CHIR-265, {1-Methyl-5-[2-(5-trifluoromethyl-1H-imidazol-2-yl)-pyridin-4-yloxy]-1H benzoimidazol-2-yl}-(4-trifluoromethyl-phenyl)-amine]",inhibition of the Raf pathway,SKMEL2,inhibition of the Raf pathway
same,inhibition of the Raf pathway,SW620,inhibition of the Raf pathway
same,inhibition of the Raf pathway,A2058,inhibition of the Raf pathway
same,effect on tumor,MEXF276 xenograft,tumor regression
same,inhibition of the Raf pathway,MALME-3M,inhibition of the Raf pathway
same,inhibition of the Raf pathway,G361,inhibition of the Raf pathway
same,effect on tumor,HT29 xenograft,tumor regression
same,inhibition of the Raf pathway,SKMEL31,inhibition of the Raf pathway
same,effect on tumor,HCT116 xenograft,tumor growth inhibition
same,inhibition of the Raf pathway,COLO205,inhibition of the Raf pathway
same,"number of genes significantly differential, alternate analysis method (six queries, p<0.005)",[1],609 genes
same,effect on tumor,A375M xenograft,tumor regression
same,inhibition of the Raf pathway,SKMEL28,inhibition of the Raf pathway
same,inhibition of MEK target phosphorylation and signaling molecules downstream from Raf in the MAPK pathway,[2],dose and time dependent inhibition
